Reference: ChEMBL document CHEMBL1201862, “PubChem BioAssay data set” (2004)
Structures can show the parent of a compound that is named as a salt.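 Tested at 5 concentrations; 48 h exposure; 96-well plates; endpoints linearly interpolated, else capped at highest concentration. The concentration for 50% growth inhibition is given as GI50.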 Calls of active or inactive are those of the source. No stated cut-off is given here; in the data, active = GI50 up to about 1.1 µM and inactive = higher.

Experiments:
Experiment in all cases: NCI tumour cell line growth inhibition, 48 h
ACHN = system: ACHN
EKVX = system: EKVX
HCC 2998 = system: HCC 2998
HL-60 = system: HL-60
IGROV-1 = system: IGROV-1
M14 = system: M14
Malme-3M = system: Malme-3M
NCI-H23 = system: NCI-H23
RPMI-8226 = system: RPMI-8226
SK-MEL-28 = system: SK-MEL-28
TK-10 = system: TK-10
U-251 = system: U-251
UACC-257 = system: UACC-257
UO-31 = system: UO-31
A498 = system: A498
SNB-75 = system: SNB-75

Measured: GI50

CCOC(=O)C1=C(C)CC2C(=O)OC(=O)C2C1(C)C (stereo unspecified)
inactive: ACHN > 100 µM | EKVX > 100 µM | HCC 2998 > 100 µM | HL-60 > 100 µM | IGROV-1 > 100 µM | M14 > 100 µM | Malme-3M > 100 µM | NCI-H23 > 100 µM | RPMI-8226 > 100 µM | SK-MEL-28 > 100 µM | TK-10 > 100 µM | U-251 > 100 µM | UACC-257 > 100 µM | UO-31 > 100 µM

O=C(CCc1nnc2s/c(=C\c3ccc(Cl)c(Cl)c3)c(=O)n12)Nc1ccc(Cl)c(Cl)c1
inactive: A498 39 µM | ACHN > 100 µM | EKVX > 100 µM | HCC 2998 > 100 µM | HL-60 22.8 µM | IGROV-1 44.2 µM | M14 > 100 µM | Malme-3M > 100 µM | NCI-H23 > 100 µM | RPMI-8226 20.4 µM | SK-MEL-28 > 100 µM | SNB-75 58.3 µM | TK-10 > 100 µM | U-251 36.9 µM | UACC-257 > 100 µM | UO-31 > 100 µM

C[n+]1cc(C(O)c2ccc3c(c2)OCO3)c2ccccc2c1 (stereo unspecified)
inactive: A498 29.9 µM | ACHN 29.1 µM | EKVX 27 µM | HCC 2998 37.8 µM | IGROV-1 47.4 µM | M14 25.4 µM | Malme-3M 25.4 µM | RPMI-8226 13.9 µM | SNB-75 41.1 µM | TK-10 36.8 µM | U-251 27 µM | UACC-257 18.6 µM | UO-31 16.6 µM

Cc1[nH]c2ccccc2c1C(=O)CC1(O)C(=O)Nc2ccccc21 (stereo unspecified)
inactive: A498 > 100 µM | ACHN > 100 µM | EKVX 73.1 µM | HCC 2998 > 100 µM | HL-60 > 100 µM | IGROV-1 > 100 µM | M14 > 100 µM | NCI-H23 > 100 µM | RPMI-8226 > 100 µM | SK-MEL-28 > 100 µM | SNB-75 > 100 µM | TK-10 > 100 µM | U-251 > 100 µM | UACC-257 > 100 µM | UO-31 > 100 µM

CSc1nc(Cl)c(Br)c(Sc2nc(N)nc3nc[nH]c23)n1
inactive: ACHN 15.3 µM | HCC 2998 3.79 µM | HL-60 3.63 µM | IGROV-1 13.5 µM | M14 4.56 µM | Malme-3M 13.4 µM | NCI-H23 10.4 µM | RPMI-8226 2.25 µM | SK-MEL-28 11 µM | SNB-75 3.03 µM | TK-10 6.79 µM | U-251 4.48 µM | UACC-257 13.9 µM | UO-31 5.01 µM

CC(=O)OCC(OC(C)=O)C(OC(C)=O)C(OC(C)=O)C(=O)CNn1c(-c2ccccc2Cl)nc2ccccc2c1=O (stereo unspecified)
inactive: A498 > 100 µM | ACHN > 100 µM | EKVX > 100 µM | HL-60 38.5 µM | M14 > 100 µM | Malme-3M > 100 µM | NCI-H23 > 100 µM | RPMI-8226 76 µM | SK-MEL-28 > 100 µM | SNB-75 > 100 µM | U-251 > 100 µM | UACC-257 > 100 µM | UO-31 > 100 µM

CCOC(=O)CC(C)C1(C=O)CCCCC1=O (stereo unspecified)
inactive: A498 > 100 µM | ACHN > 100 µM | EKVX > 100 µM | HCC 2998 > 100 µM | HL-60 > 100 µM | IGROV-1 > 100 µM | M14 29.6 µM | Malme-3M > 100 µM | RPMI-8226 20.6 µM | SK-MEL-28 > 100 µM | SNB-75 > 100 µM | TK-10 > 100 µM | U-251 > 100 µM | UACC-257 > 100 µM | UO-31 > 100 µM

Nc1ccc(C(=O)CC2(O)C(=O)Nc3ccccc32)cc1 (stereo unspecified)
inactive: A498 > 100 µM | ACHN > 100 µM | EKVX > 100 µM | HL-60 38.9 µM | IGROV-1 > 100 µM | M14 > 100 µM | Malme-3M > 100 µM | NCI-H23 > 100 µM | RPMI-8226 > 100 µM | SK-MEL-28 > 100 µM | SNB-75 92.9 µM | TK-10 > 100 µM | UACC-257 > 100 µM | UO-31 > 100 µM

C[Si](C)(C)c1ccc(-c2sc(-c3ccc([Si](C)(C)C)s3)c3c2C[Si]2(C3)Cc3c(-c4ccc([Si](C)(C)C)s4)sc(-c4ccc([Si](C)(C)C)s4)c3C2)s1
inactive: ACHN > 100 µM | HCC 2998 > 100 µM | HL-60 > 100 µM | IGROV-1 > 100 µM | M14 > 100 µM | Malme-3M > 100 µM | NCI-H23 > 100 µM | RPMI-8226 > 100 µM | SK-MEL-28 > 100 µM | SNB-75 24.9 µM | TK-10 > 100 µM | U-251 > 100 µM | UACC-257 > 100 µM | UO-31 > 100 µM

CCCCCCCCCCCCCCNCC(OCC)OCC
inactive: A498 14.4 µM | ACHN 12.6 µM | EKVX 17.7 µM | HCC 2998 13.4 µM | HL-60 2.85 µM | IGROV-1 15.2 µM | M14 14.1 µM | Malme-3M 17.1 µM | NCI-H23 16.1 µM | SK-MEL-28 16.9 µM | SNB-75 10.4 µM | TK-10 17.4 µM | U-251 15.1 µM | UACC-257 16.7 µM | UO-31 10.7 µM

COC(=O)C1C(=O)NC2(C)CC1c1ccccc1O2 (stereo unspecified)
inactive: A498 > 100 µM | ACHN > 100 µM | HCC 2998 > 100 µM | HL-60 > 100 µM | IGROV-1 > 100 µM | M14 > 10 µM | Malme-3M > 100 µM | NCI-H23 > 100 µM | RPMI-8226 > 100 µM | SK-MEL-28 > 100 µM | SNB-75 62.7 µM | TK-10 > 100 µM | U-251 > 100 µM | UACC-257 > 100 µM | UO-31 > 100 µM

CC1=C2[C@@H](c3ccccc3)C3C=CC2(c2ccccc23)N(C(=O)Nc2cccc3ccccc23)C1=O (stereo partly specified)
inactive: A498 > 100 µM | ACHN > 100 µM | EKVX > 100 µM | HCC 2998 > 100 µM | HL-60 > 100 µM | IGROV-1 > 100 µM | M14 > 100 µM | Malme-3M > 100 µM | NCI-H23 > 100 µM | RPMI-8226 > 100 µM | SK-MEL-28 > 100 µM | U-251 > 100 µM | UACC-257 > 100 µM | UO-31 > 100 µM

CC(NC(C)(C)C)C(=O)c1cccc(Cl)c1 (stereo unspecified) [BUPROPION HYDROCHLORIDE]
inactive: A498 > 100 µM | ACHN > 100 µM | EKVX > 100 µM | HCC 2998 > 100 µM | IGROV-1 > 100 µM | M14 > 100 µM | Malme-3M > 100 µM | NCI-H23 > 100 µM | RPMI-8226 > 100 µM | SK-MEL-28 > 100 µM | SNB-75 > 100 µM | TK-10 > 100 µM | U-251 > 100 µM | UACC-257 > 100 µM
